Five molecules from PubChem BioAssay AID2060603 (Molecular Pharmacology Branch, DTP, NCI, 2025) can be followed below.

In this assay the test system is 422866-222-R5-J1-PDC spheroid viability. Put plainly: Anticancer human tumor 422866-222-R5-J1-PDC patient-derived pancreatic adenocarcinoma cell line growth inhibition [CLK]. As to conditions: spheroids with HUVEC and MSC; for viability, T/C: stronger effect = lower value. In outline: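 Multi-cell-type spheroids combined patient-derived tumor cells with HUVEC endothelial cells and human mesenchymal stem cells. Paired agents were dosed in half-log steps down from about clinical Cmax, or from 10 microM where Cmax was unknown.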

Setting [1] is: curve of first compound, second compound 0.0316 µM.
Setting [2] is: curve of first compound, second compound 0.1 µM.
Setting [3] is: curve of first compound, second compound 0.316 µM.
[4] abbreviates: curve of first compound, second compound 1 µM.
Where [5] appears, read: curve of first compound, second compound 3.16 µM.
Where [6] appears, read: curve of first compound, second compound 10 µM.
[7] abbreviates: second compound 0.0316 µM, first compound 0.0316 µM.
The mark [8] stands for this setting: second compound 0.0316 µM, first compound 0.1 µM.
The mark [9] stands for this setting: second compound 0.0316 µM, first compound 0.316 µM.
Where [10] appears, read: second compound 0.0316 µM, first compound 1 µM.
Setting [11] is: second compound 0.0316 µM, first compound 3.16 µM.
The mark [12] stands for this setting: second compound 0.0316 µM, first compound 10 µM.
Setting [13] is: second compound 0.1 µM, first compound 0.0316 µM.
Where [14] appears, read: second compound 0.1 µM, first compound 0.1 µM.
The mark [15] stands for this setting: second compound 0.1 µM, first compound 0.316 µM.
Where [16] appears, read: second compound 0.1 µM, first compound 1 µM.
Setting [17] is: second compound 0.1 µM, first compound 3.16 µM.
Setting [18] is: second compound 0.1 µM, first compound 10 µM.
Where [19] appears, read: second compound 0.316 µM, first compound 0.0316 µM.
Where [20] appears, read: second compound 0.316 µM, first compound 0.1 µM.
The mark [21] stands for this setting: second compound 0.316 µM, first compound 0.316 µM.
Where [22] appears, read: second compound 0.316 µM, first compound 1 µM.
The mark [23] stands for this setting: second compound 0.316 µM, first compound 3.16 µM.
Setting [24] is: second compound 0.316 µM, first compound 10 µM.
Setting [25] is: second compound 1 µM, first compound 0.0316 µM.
The mark [26] stands for this setting: second compound 1 µM, first compound 0.1 µM.
The mark [27] stands for this setting: second compound 1 µM, first compound 0.316 µM.
The mark [28] stands for this setting: second compound 1 µM, first compound 1 µM.
The mark [29] stands for this setting: second compound 1 µM, first compound 3.16 µM.
The mark [30] stands for this setting: second compound 1 µM, first compound 10 µM.
Where [31] appears, read: second compound 3.16 µM, first compound 0.0316 µM.
Setting [32] is: second compound 3.16 µM, first compound 0.1 µM.
Where [33] appears, read: second compound 3.16 µM, first compound 0.316 µM.
Where [34] appears, read: second compound 3.16 µM, first compound 1 µM.
The mark [35] stands for this setting: second compound 3.16 µM, first compound 3.16 µM.
Setting [36] is: second compound 3.16 µM, first compound 10 µM.
[37] abbreviates: second compound 10 µM, first compound 0.0316 µM.
Where [38] appears, read: second compound 10 µM, first compound 0.1 µM.
Setting [39] is: second compound 10 µM, first compound 0.316 µM.
[40] abbreviates: second compound 10 µM, first compound 1 µM.
The mark [41] stands for this setting: second compound 10 µM, first compound 3.16 µM.
Setting [42] is: second compound 10 µM, first compound 10 µM.

Several values for one entry are separate records, joined by “and”; a condition that tells them apart may be missing. Identical values can stand only once.
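Note: spheroids exposed to agents for seven days before readout.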

`COC1C=CCC(C)C(C)S(=O)(=O)NC(=O)c2ccc3c(c2)N(CC2CCC21)CC1(CCCc2cc(Cl)ccc21)CO3` (stereo not given): the viability, T/C (as a rule, the result in the treated group divided by that in the control group, in per cent) reads like this: (compound 0.0316 µM) 102% and 113%; (compound 0.1 µM) 91.9% and 102%; (compound 0.316 µM) 95.6% and 101%; (compound 1 µM) 97.8% and 87.8%; (compound 3.16 µM) 87.5% and 111%; (compound 10 µM) 59.8% and 69.4%. Moreover, under “curve of compound”, the IC50 (commonly the midpoint of a concentration-inhibition curve) was above 10 µM.
On to `Nc1ccccc1NC(=O)c1ccc(CNC(=O)OCc2cccnc2)cc1` + CN1CCN(c2cc(C(=O)Nc3cc4cc(-c5cnn(C)c5)ccc4cn3)ccn2)CC1, for which the half-inhibitory concentration (IC50) is, setting by setting: under setting [1], above 10 µM; under setting [2], above 10 µM; under setting [3], 2.38 µM; under setting [4], below 0.0316 µM; under setting [5], below 0.0316 µM; under setting [6], below 0.0316 µM. The viability, T/C by setting is: under setting [7], 121%; under setting [8], 137%; under setting [9], 121%; under setting [10], 114%; under setting [11], 75.8%; under setting [12], 60.4%. In addition, the viability, T/C reads like this: under setting [13], 135%; under setting [14], 118%; under setting [15], 121%; under setting [16], 96.6%; under setting [17], 74.5%; under setting [18], 62.6%. Moreover, the viability, T/C runs as follows: under setting [19], 106%; under setting [20], 95.5%; under setting [21], 91.1%; under setting [22], 62.5%; under setting [23], 46.9%; under setting [24], 19.5%. Besides, the viability, T/C under setting [25] is 28.4%; the viability, T/C under setting [26] was 28.6%; the viability, T/C under setting [27] is 25.6%; the viability, T/C under setting [28] is 16.1%; the viability, T/C under setting [29] was 4.32%; the viability, T/C under setting [30] is 5.2%. For the same molecule, the viability, T/C under setting [31] was 8.75%; the viability, T/C under setting [32] is 8.34%; the viability, T/C under setting [33] was 4.74%; the viability, T/C under setting [34] is 4.04%; the viability, T/C under setting [35] was 3.26%; the viability, T/C under setting [36] was 8.29%. Moreover, the viability, T/C was 2.62% under setting [37]; 1.81% under setting [38]; 1.37% under setting [39]; 1.01% under setting [40]; 2.34% under setting [41]; 4.45% under setting [42].
As to `CC(CO)NC(=O)c1cc(-c2ccc(Cl)cc2)nn(-c2cnn(C)c2)c1=O` (stereo not given), the viability, T/C (compound 0.0316 µM) was 93.7% and 89.7%; the viability, T/C (compound 0.1 µM) is 96.4% and 110%; the viability, T/C (compound 0.316 µM) is 90.4% and 96.5%; the viability, T/C (compound 1 µM) was 106% and 108%; the viability, T/C (compound 3.16 µM) was 96.3% and 107%; the viability, T/C (compound 10 µM) was 78.1% and 83%. Further, for the setting “curve of compound”, the IC50 is above 10 µM.
On to `NC(=O)C(=Cn1cnc(-c2cc(C(F)(F)F)cc(C(F)(F)F)c2)n1)c1cncnc1`, for which the viability, T/C by setting is: (compound 0.00949 µM) 95.7% and 97.4%; (compound 0.03 µM) 103% and 84%; (compound 0.0949 µM) 86.1% and 81.5%; (compound 0.3 µM) 72.6% and 58.2%; (compound 0.949 µM) 89.1% and 92.3%; (compound 3 µM) 76.9% and 76.2%. Besides, for the setting “curve of compound”, the IC50 was above 3 µM.
For `CCCS(=O)(=O)Nc1ccc(F)c(C(=O)c2c[nH]c3ncc(-c4ccc(Cl)cc4)cc23)c1F` + CNC(=O)c1ccc(Nc2nc(OC3CCCC3)c3c(-c4ccc5nc(C)oc5c4)c[nH]c3n2)c(OC)c1, the half-maximal inhibitory concentration (IC50) was above 10 µM under setting [1]; above 10 µM under setting [2]; above 10 µM under setting [3]; above 10 µM under setting [4]; above 10 µM under setting [5]; above 10 µM under setting [6]. For the same molecule, the viability, T/C by setting is: under setting [7], 93.6%; under setting [8], 111%; under setting [9], 141%; under setting [10], 155%; under setting [11], 190%; under setting [12], 134%. Besides, the viability, T/C is, setting by setting: under setting [13], 99.8%; under setting [14], 102%; under setting [15], 114%; under setting [16], 152%; under setting [17], 224%; under setting [18], 122%. Further, the viability, T/C is 81.5% under setting [19]; 77.2% under setting [20]; 79.3% under setting [21]; 105% under setting [22]; 101% under setting [23]; 104% under setting [24]. Besides, the viability, T/C is 69% under setting [25]; 75.9% under setting [26]; 81.1% under setting [27]; 91% under setting [28]; 114% under setting [29]; 92.3% under setting [30]. Besides, the viability, T/C reads like this: under setting [31], 58.4%; under setting [32], 70.1%; under setting [33], 67.1%; under setting [34], 84.6%; under setting [35], 128%; under setting [36], 84%. Also, the viability, T/C was 57.8% under setting [37]; 69.2% under setting [38]; 74.8% under setting [39]; 75.9% under setting [40]; 117% under setting [41]; 80.7% under setting [42].
